These results are taken from ChEMBL document CHEMBL1201862, “PubChem BioAssay data set” (2004).

Broadly, the GI50 is the concentration that inhibits growth by half.

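Exposure lasted 48 hours, with cells grown in 96-well plates and compounds tested at five concentrations. GI50: concentration for 50% inhibition of growth.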 Calls of active or inactive are those of the source. Rule as the data show it: active = GI50 up to about 1.1 µM and inactive = higher.

Among the test systems are U-251; HCT-15; M14; SF-539; 786-0; SNB-19; CCRF-CEM; NCI-H23; SK-MEL-28; HT-29; HCT-116; LOX IMVI; IGROV-1; K562; HOP-62; BT-549; ACHN; Hs-578T; MDA-N; MDA-MB-231.
Assay in all cases: DTP human tumour cell line panel, 48 h

On to `O=C(O)CC(Cc1ccccc1)C(=O)O` (configuration not stated), for which the GI50 with U-251 was > 100 µM (inactive); in the assay on HCT-15, more than 100 µM; in the assay with M14, > 100 µM (inactive); in the assay with SF-539, > 100 µM (inactive); in the assay on 786-0, 76.2 µM (inactive); in the assay with SNB-19, > 100 µM (inactive). In addition, the GI50 in the assay with CCRF-CEM, in the assay on NCI-H23, with SK-MEL-28, in the assay with HT-29, with HCT-116 and with LOX IMVI was > 100 µM (inactive) in each case. Moreover, the GI50 is > 100 µM (inactive) with IGROV-1; > 100 µM (inactive) in the assay on K562; > 100 µM (inactive) with HOP-62; > 100 µM (inactive) with BT-549; > 100 µM (inactive) in the assay with ACHN; 50.5 µM (inactive) in the assay with Hs-578T. For the same molecule, the GI50 in the assay with MDA-N was 56.5 µM (inactive).

As to `COc1ccc(C(=O)/C=C/c2ccc(OCC#N)cc2)cc1`, the GI50 with U-251 is 17.4 µM (inactive); in the assay on HCT-15, 23.3 µM; with M14 it was 20 µM (inactive); in the assay with SF-539, 20.4 µM (inactive); in the assay with 786-0 it was 42.2 µM (inactive); with SNB-19, 26.2 µM (inactive). For the same molecule, the GI50 was 23.2 µM (inactive) with CCRF-CEM; 21.3 µM (inactive) in the assay on NCI-H23; 17.1 µM (inactive) in the assay on SK-MEL-28; 33.3 µM (inactive) in the assay with HT-29; 12.2 µM (inactive) in the assay on HCT-116; > 10 µM (inactive) in the assay on IGROV-1. The GI50 in the assay with MDA-MB-231 was 23.4 µM (inactive); with K562, 28.2 µM (inactive); with HOP-62, 53.1 µM (inactive); with BT-549 it was 17.5 µM (inactive); in the assay on ACHN it was 36.1 µM (inactive); in the assay on Hs-578T, 27.7 µM (inactive). Besides, the GI50 in the assay with MDA-N is > 10 µM (inactive).

Regarding `COc1ccc(C2CCc3nc4nc(N)nc(N)c4cc3C2)cc1` (configuration not stated), the GI50 is 9.64 µM (inactive) in the assay with U-251; 58.9 µM in the assay with HCT-15; 86.9 µM (inactive) with M14; 12.4 µM (inactive) in the assay with SF-539; 3.13 µM (inactive) in the assay with 786-0; 6.65 µM (inactive) in the assay on SNB-19. Besides, the GI50 was 20.8 µM (inactive) with SK-MEL-28; 29.2 µM (inactive) in the assay with HT-29; 26 µM (inactive) in the assay on HCT-116; 12.1 µM (inactive) in the assay on LOX IMVI; 9.68 µM (inactive) in the assay with IGROV-1; 14.8 µM (inactive) in the assay on MDA-MB-231. The GI50 with K562 is 16.4 µM (inactive); in the assay with HOP-62 it was 12.1 µM (inactive); with BT-549, 25.5 µM (inactive); with ACHN, 6.64 µM (inactive); in the assay with Hs-578T, 15.6 µM (inactive); in the assay on MDA-N, 38.3 µM (inactive).

Turning to `CC(C)CC1c2[nH]c3ccccc3c2C[C@H]2C(=O)NC(CCCCNC(=O)OC(C)(C)C)C(=O)N12` (some centres not stated), the GI50 is 24.7 µM (inactive) in the assay with U-251; 31.8 µM with HCT-15; 35.3 µM (inactive) with M14; 20.9 µM (inactive) in the assay with 786-0; 47.1 µM (inactive) in the assay with SNB-19; 33 µM (inactive) with NCI-H23. Further, the GI50 is 65.6 µM (inactive) in the assay on SK-MEL-28; 23.5 µM (inactive) in the assay with HT-29; 30 µM (inactive) with HCT-116; 24.6 µM (inactive) with LOX IMVI; 37.1 µM (inactive) in the assay on IGROV-1; 17 µM (inactive) with MDA-MB-231. For the same molecule, the GI50 was 32 µM (inactive) in the assay on K562; 56.2 µM (inactive) with HOP-62; 25.2 µM (inactive) in the assay with BT-549; 29 µM (inactive) in the assay with ACHN; 2.7 µM (inactive) with Hs-578T; 37.5 µM (inactive) in the assay with MDA-N.

In the case of `O=S(=O)(O)c1ccc(-c2nnc(-c3ccccn3)nc2-c2ccc(S(=O)(=O)O)o2)o1`, the GI50 with U-251 was > 100 µM (inactive); with HCT-15, more than 100 µM; in the assay on M14 it was > 100 µM (inactive); in the assay on SF-539 it was > 100 µM (inactive); in the assay with 786-0 it was > 100 µM (inactive); in the assay with SNB-19 it was > 100 µM (inactive). The GI50 in the assay with NCI-H23, in the assay on SK-MEL-28, with HT-29, with HCT-116, in the assay with LOX IMVI and in the assay with IGROV-1 was > 100 µM (inactive) each time. In addition, the GI50 in the assay on MDA-MB-231, with K562, with HOP-62, with BT-549, in the assay on ACHN and with Hs-578T was > 100 µM (inactive) throughout. In addition, the GI50 in the assay with MDA-N was > 100 µM (inactive).

As for `C1=Nc2sc3c(c2C2=NCCN12)CCCC3`, the GI50 with U-251 was 21.4 µM (inactive); in the assay on HCT-15, 16.4 µM; with 786-0, 17.4 µM (inactive); with SNB-19 it was 18.4 µM (inactive); in the assay with NCI-H23, 15.6 µM (inactive); with SK-MEL-28, 20.7 µM (inactive). Further, the GI50 with HT-29 is 18.1 µM (inactive); with HCT-116 it was 16.3 µM (inactive); in the assay on LOX IMVI it was 14.7 µM (inactive); in the assay on IGROV-1 it was 15.4 µM (inactive); in the assay on MDA-MB-231 it was 14.2 µM (inactive); in the assay with K562, 22.4 µM (inactive). The GI50 was 20 µM (inactive) with HOP-62; 15.2 µM (inactive) in the assay on BT-549; 17.1 µM (inactive) in the assay on ACHN; 21.5 µM (inactive) in the assay on Hs-578T; 20.1 µM (inactive) in the assay with MDA-N.

On to `CCOC(=O)c1nc2ccccc2nc1Nc1ccc(OC)c(OC)c1`, for which the GI50 in the assay on U-251 is 75.7 µM (inactive); in the assay on HCT-15, more than 100 µM; with M14, > 100 µM (inactive); in the assay on SF-539, > 100 µM (inactive); in the assay with 786-0, 77.1 µM (inactive); with SNB-19, > 100 µM (inactive). For the same molecule, the GI50 with CCRF-CEM, in the assay on NCI-H23, with SK-MEL-28, in the assay with HT-29, in the assay on HCT-116 and in the assay with IGROV-1 was > 100 µM (inactive) in each case. The GI50 was > 100 µM (inactive) in the assay on MDA-MB-231; > 100 µM (inactive) in the assay on K562; > 100 µM (inactive) in the assay with HOP-62; > 100 µM (inactive) in the assay with BT-549; > 100 µM (inactive) in the assay on ACHN; 37.7 µM (inactive) with Hs-578T. Besides, in the assay with MDA-N, the GI50 was > 100 µM (inactive).

In the case of `CC(=O)N1N=C(c2c(O)ccc3ccccc23)CC1C(=O)c1ccco1` (configuration not stated), the GI50 with U-251 was 34.3 µM (inactive); with HCT-15, 37.9 µM; with M14 it was 22.4 µM (inactive); in the assay on SF-539 it was 21.1 µM (inactive); with 786-0, 30.8 µM (inactive); in the assay with CCRF-CEM, 14.9 µM (inactive). The GI50 in the assay on NCI-H23 was 22.2 µM (inactive); in the assay on SK-MEL-28 it was 30.9 µM (inactive); in the assay with HT-29, 33.8 µM (inactive); in the assay with HCT-116, 20.4 µM (inactive); with IGROV-1, 27.1 µM (inactive); with MDA-MB-231, 18.4 µM (inactive). The GI50 is 16.9 µM (inactive) in the assay on K562; 29.8 µM (inactive) in the assay on HOP-62; 18.4 µM (inactive) in the assay on BT-549; 33 µM (inactive) with ACHN; 34.5 µM (inactive) with Hs-578T; 23.9 µM (inactive) in the assay with MDA-N.

Consider `OC1(c2ccccc2)c2ccccc2N=C2NCCN21` (configuration not stated), for which the GI50 in the assay with U-251 was 91.8 µM (inactive); in the assay with HCT-15, 93.1 µM; with M14, 50.6 µM (inactive); with SF-539, > 100 µM (inactive); in the assay with 786-0 it was 72.9 µM (inactive); with SNB-19, > 100 µM (inactive). Further, the GI50 in the assay on NCI-H23 is 60 µM (inactive); with SK-MEL-28, 89.3 µM (inactive); in the assay with HT-29, 74.6 µM (inactive); with HCT-116 it was 83.9 µM (inactive); in the assay with LOX IMVI, 23.4 µM (inactive); in the assay with IGROV-1 it was > 100 µM (inactive). Besides, the GI50 in the assay on MDA-MB-231 was > 100 µM (inactive); in the assay with HOP-62 it was > 100 µM (inactive); in the assay on BT-549 it was > 100 µM (inactive); with ACHN it was > 100 µM (inactive); in the assay on Hs-578T, > 100 µM (inactive); with MDA-N it was 35.6 µM (inactive).

Take `CCCNC(=O)CCC(C)[C@H]1CCC2C3C(C[C@H](OC(C)=O)[C@@]21C)[C@@]1(C)CCC2(C[C@H]1C[C@H]3OC(C)=O)OOC1(CCC(C)CC1)OO2` (some centres not stated): the GI50 in the assay on U-251 is 14.8 µM (inactive); with HCT-15, 35.3 µM; in the assay on M14, 26.4 µM (inactive); with SF-539, 16.7 µM (inactive); in the assay with 786-0 it was 16.2 µM (inactive); in the assay with SNB-19, 80.2 µM (inactive). In addition, the GI50 in the assay on CCRF-CEM was 0.0376 µM (active); with NCI-H23, 4.88 µM (inactive); in the assay with SK-MEL-28 it was 89.7 µM (inactive); in the assay with HT-29 it was 36.9 µM (inactive); in the assay with HCT-116 it was 32.1 µM (inactive); in the assay with IGROV-1 it was 1.87 µM (inactive). Moreover, the GI50 in the assay on MDA-MB-231 was 29.1 µM (inactive); in the assay with K562 it was 33.2 µM (inactive); in the assay on HOP-62, 1.72 µM (inactive); with BT-549, 27.1 µM (inactive); in the assay with ACHN, 2.14 µM (inactive); in the assay with Hs-578T, 31 µM (inactive). Moreover, the GI50 in the assay with MDA-N was 14.3 µM (inactive).

In the case of `O=C(c1ccccc1)C1C(C(=O)c2ccccc2)N1Cc1ccccc1` (configuration not stated), the GI50 in the assay with U-251 was 27.6 µM (inactive); in the assay on HCT-15 it was 57.3 µM; in the assay on M14, 28.6 µM (inactive); with 786-0, 34.8 µM (inactive); with SNB-19 it was 37 µM (inactive); with CCRF-CEM, 36.6 µM (inactive). The GI50 with NCI-H23 is 37.8 µM (inactive); in the assay with SK-MEL-28, 32.7 µM (inactive); with HT-29, 36.5 µM (inactive); in the assay on LOX IMVI, 31.2 µM (inactive); in the assay with IGROV-1, 49.8 µM (inactive); in the assay on MDA-MB-231, 26.1 µM (inactive). In addition, the GI50 is 27.9 µM (inactive) in the assay with K562; 30.5 µM (inactive) with HOP-62; 25.9 µM (inactive) in the assay on BT-549; 41.9 µM (inactive) in the assay on ACHN; 32.3 µM (inactive) in the assay on Hs-578T; 13.5 µM (inactive) in the assay with MDA-N.
